Reference: patent publication EP2402030A1, “Linear IgE peptide epitopes of celery allergen api 1” (Charité Universitätsmedizin Berlin, priority 2010, dated 2012)

Tested on: human IgE antibodies
Assay: Human IgE antibody binding to SPOT-synthesized 12-meric Api g 1.0101 peptide arrays on N-CAPE cellulose membranes, probed with sera, HRP-labeled anti-human IgE, chemiluminescence
Conditions: for celery allergic individuals responding to the peptide (positive IgE antibody binding spot) / number of celery allergic patients whose sera IgE antibodies bind the sequence / recognition by sera of celery allergic patients: sera of 21 celery allergic patients; for celery allergic individuals responding to the peptide (positive IgE antibody binding spot) / IgE binding in sera of healthy controls / recognition by sera of celery allergic patients: diluted 1:5; for celery allergic individuals responding to the peptide (positive IgE antibody binding spot): positive if SInorm above the membrane's cut off value; for IgE binding in sera of healthy controls: sera of 17 healthy subjects
Text: The protein sequence of the major allergen in celery Api g 1.0101 (UniprotKB/Swissprot entry P49372) was dissected into sets of overlapping peptides (pepscan). Subsequently, these sequences were synthesized as peptide arrays on cellulose membranes according to SPOT technology. A highly specific secondary anti-human IgE antibody with minimum cross-reactivity towards cellulose membrane-bound peptides was employed.
Synthetic arrays were probed with sera randomly chosen from a well described cohort of subjects, including 21 patients with a defined allergic reaction to celery and 17 healthy individuals. Captured human IgE antibodies were detected by a HRP-labeled secondary antibody and binding was visualized by chemiluminescence.
The optimal conditions for screening the sera of 21 celery allergic patients and 17 healthy controls were as follows: (i) replica of a 12-meric pepscan with a shift of three amino acids covering the Api g 1.0101 sequence synthesized on high-loaded N-CAPE membranes (640 nmol/cm2 - 760 nmol/cm2); (ii) prior to treatment with sera, membranes were blocked with the Sigma-Genosys blocking buffer for 2 h at room temperature; (iii) arrays were probed for 16 h at 4°C with diluted sera (1:5) for IgE antibody binding; (iv) the captured human IgE antibodies were detected with the HRP-labeled anti-human IgE antibody (A 9667, Sigma-Aldrich) and visualized by chemiluminescence; (v) spot signal intensities were measured on a LumiImager and processed with the LumiAnalyst software. To check the reproducibility of our screening procedure, three different peptide arrays were incubated and evaluated for each person (allergic and healthy).
Sera binding patterns could be reproduced in repeated incubation experiments. Although inter-membrane absolute spot signal intensities differed, the relative differences between spot signal intensities were nearly the same. This enabled comparison of spot signal intensities from different membranes by applying an additional normalization procedure. We defined an IgE antibody binding spot as positive if its normalized signal intensity (SInorm) was higher than the calculated cut off value of the appropriate membrane.
Human IgE antibody binding studies: The spotted peptide arrays were prewashed with ethanol (1 × 10 min), washed with Tris-buffered saline (TBS), pH 8.0 (3 × 10 min), and blocked for 2 h at room temperature with blocking buffer. The membranes were incubated with the patients' sera (dilution 1:5) in blocking buffer overnight at 4°C, washed with TBS, followed by a second incubation with anti-human IgE antibody (ε-chain specific) conjugated with horse radish peroxidase (HRP) (A 9667, Sigma-Aldrich, St. Louis, USA) in blocking buffer for 2 h at room temperature. To remove excess antibody the membrane was washed with TBS (3x10 min). Detection was performed with Uptilight HRP blot chemiluminescent substrate (Uptima, Interchim, Montiuçon Cedex, France) with an exposure time of 2 min. The signal intensities were recorded as Biomedical Light Units (BLU) by a Lumi Imager™ (Boehringer Mannheim GmbH, Mannheim, Germany) using the LumiAnalyst software.
Measurement of spot signal intensities: Analysis and measurement of spot signal intensities were executed with the LumiAnalyst software, version 3.1 (Boehringer Mannheim GmbH, Mannheim, Germany). The spot signal was calculated from a circular region around the spot center detected on the image. To guarantee uniform spot signal assessment, and reduce signal variations caused by the background, we choose the background correction method in the LumiAnalyst software. This method allows local background correction when calculating the BLU of each spot. The background values of each spot were determined from BLU values around the spot with a safety margin and normalized to the area of the spot. Comparing replicas of several membranes, incubated under identical conditions, we found signal intensity deviations of a factor of 11. […]

Sequence | celery allergic individuals responding to the peptide (positive IgE antibody binding spot) [%] | IgE binding in sera of healthy controls | number of celery allergic patients whose sera IgE antibodies bind the sequence | other results
GDGGPGTLKIIT [compound 16, 12-meric peptide of Api g 1.0101] | 38 |  |  | 
GGPITTMTLRID [compound 21, 12-meric peptide of Api g 1.0101] | 29 |  |  | 
IFQGFVIDVDTV [peptide 7, 12-meric peptide of Api g 1.0101] | 38 | not reacting with any sera IgE antibody from healthy subjects | at least six | 
IITLPDGGPITT [compound 19, 12-meric peptide of Api g 1.0101] | 29 |  |  | 
NHVVLVPTADGG [peptide 34, 12-meric peptide located in the C-terminal region of Api g 1.0101] | 29 | not reacting with any sera IgE antibody from healthy subjects | at least six | 
PTADGGSICKTT [compound 36, 12-meric peptide of Api g 1.0101] | 43 |  |  | 
VLVPTADGGSIC [peptide 35, 12-meric peptide of Api g 1.0101] | 100 | not reacting with any sera IgE antibody from healthy subjects | at least six | spot signal intensity (average spot signal intensity, Fig. 3): highest measured spot signal intensity; IgE binding in sera of healthy controls (listed as VLVPTADGGSIC): no binding; recognition by sera of celery allergic patients: recognized by the sera from all the celery allergic patients; recognition by sera of celery allergic patients (listed as VLVPTADGGSIC): recognized by all sera of celery allergic patients
